The results in this text go back to US20210163489A1, “PYRAZOLOPYRIMIDINE DERIVATIVES AND THE COMPOSITIONS AND METHODS OF TREATMENT REGARDING THE SAME” (NysnoBio Ireland DAC, priority 2016, published 2021).

Structures are written as SMILES. Bounds are passed on as bounds.

A short description of series [1]: Metabolic stability in human liver microsomes (HLM). In kind it is in vitro ADME. The following applies: pH 7.4, 1 μM compound, 1.0 mg/mL microsome, NADPH, read-out: HLM t1/2. On the procedure: Compounds were also tested for metabolic stability in both rat liver microsomes (RLM) and human liver microsomes (HLM) and their half-life calculated (See Table 6). The assay was performed as follows. The total volume for each incubation was 250 μL. A 100 μM DMSO solution of compound (diluted from 10 mM stock solution) was spiked into 50 mM KH2PO4 (pH 7.4) buffer containing liver microsome at a concentration of 1.0 mg/mL. The reaction was initiated by the addition of 50 μL of 1 mM NADPH. The final concentration of each compound was 1 μM (1% DMSO). The positive controls, phenacetin for CYP1A2, diclofenac for CYP2C9, omeprazole for CYP2C19, dextromethorphan for CYP2D6 and midazolam for CYP3A4 were added to a separate tube with the final substrate concentrations of 1 μM (1% DMSO) for evaluating the enzyme activities in the liver microsomes. At 0, 15, 30 and 60 min, an aliquot of 15 μL reaction mixtures were removed and 200 μL of methanol (with internal standard of 25 ng/mL propranolol) was added to quench the reaction. The resulting mixture was centrifuged and supernatant was used for LC-MS/MS analysis.
The signals for each compound, or the metabolites for the probe substrates and the internal standard were integrated and the peak area ratios to internal standard were generated. Percent parent remaining at a specified timepoint was calculated based on the peak area ratios at time 0 (as 100%) for in vitro metabolic stability studies in liver microsome and hepatocyte. The observed rate constant (kobs) for the metabolism of substrates was calculated by plotting the natural log of percentage substrate remaining versus time of incubation with the slope being kobs. The half-life (T1/2) was calculated according to the following equation: […]
Background: Microsomes from liver hold many membrane-bound enzymes, among them those of drug oxidation.

Series [2] concerns S-HeLa stably expressing a YFP-Parkin fusion protein. As to the kind of experiment: Cell rating experiments: Parkin-dependent induction of mitophagy (Tomm20 immunofluorescence). In kind it is cell-based. Also noted: key to Cell Ratings [Example 4] (cell activity): +++: >70% effect at 10 μM; ++: 69%-31% effect at 10 μM; +: <30% effect at 10 μM; −: negative at 10 μM. The following applies: Tomm20 negative cells, 6 μM CCCP, compound at 10 μM; for activation at 10 µM: 20 h, read-out: Cell Ratings [Example 4] (cell activity); for Cell Ratings [Example 4] (cell activity): 20 hours. On the procedure: Compounds: All compounds were dissolved in DMSO to a concentration of 25 mM and stored at −20° C. Compound 1 is N,N′-(1-phenyl-1H-1,2,4-triazole-3,5-diyl)dibenzamide.
Cell Culture: S-HeLa stably expressing a YFP-Parkin fusion protein (kindly donated by Prof. Richard J. Youle, Porter Neuroscience Research Center, Bethesda, Md., USA) were utilised to assess Parkin-dependent induction of mitophagy. 4000 cells were seeded in each well of a 96 well plate (Parkin Elmer ViewPlate-96 F TC, cat. N. 6005182) and left to grow for 24 hours.
Subsequently cells were incubated with vehicle (DMSO) or 6 μM CCCP for 1 hour prior to adding increasing concentrations of compound (1, 2.5, 5, 10 μM), each condition run in replicate of five. After 20 hours cells were processed for immunofluorescence.
Immunofluorescence: Samples were fixed in 4% PFA for 25 minutes RT and permeabilized with PBS 0.1% Triton-X100 for 3 minutes on ice, blocked with PBS 3% BSA, 0.3% Triton-X100 for 2 hours RT, followed by overnight incubation with primary antibody at 4° C. ([…] rabbit Tomm20 antibody FL-145; Santa Cruz Biotechnology) diluted in PBS 0.1% BSA, 0.3% Triton-X100. The secondary goat anti-rabbit antibody conjugated with DyLight 649 (Jackson ImmunoResearch) was applied for 1 hour at room temperature at a concentration of […] in conjunction with […] Hoechst33342.
Cells were imaged using an Olympus ScanR automated microscope equipped with motorised stage and 20x APO planar objective. 18 images were acquired for each well using the following combination of excitation/emission filters: Hoechst33342 was excited through a 350/50 nm band pass filter and fluorescence intensity was collected through a 460/30 band pass filter. YFP was excited through a 500/20 nm band pass filter and fluorescence intensity was collected through a 540/35 band pass filter. DyLight 649 was excited through a 640/30 nm band pass filter and fluorescence intensity was collected through 700/75 band pass filter. Images were processed and analysed as described in the Image Analysis section.
Image analysis: Images were processed and analysed using Columbus HCS Analysis software (Version 2.5.0., PerkinElmer) as follows:
Tomm20 fluorescence intensity was corrected using the parabola algorithm. Hoechst 33342 fluorescence was used to identify and count cells. Cells were segmented according to Tomm20 fluorescence intensity. Spot detection was optimized to recognize number and total cellular area of Tomm20 stained clusters (mitochondria).
Tomm20 staining intensity, spot numbers and spot area were used to train a linear classifier algorithm that discriminated between Tomm20 positive (high intensity, spot numbers and spot area) and Tomm20 negative cells (low intensity, spot numbers and spot area).
Bar graphs were generated reporting the number of Tomm20 negative cells expressed as percentage of total cells imaged for each well (FIGS. 3 and 6). Results were shown as mean ±SD of a representative experiment performed in triplicate. +++ indicates >70% effect at 10 μM; ++ indicates 69%-31% effect at 10 μM; + indicates <30% effect at 10 μM; − indicates negative at 10 μM; NA=not available.

As for `Cc1nc2c(-c3ccccc3)c(C)nn2c(S)c1Cc1ccncc1` [Compound AA, 2,5-dimethyl-3-phenyl-6-(4-pyridylmethyl)pyrazolo[1,5-a]pyrimidine-7-thiol], in series [1], the half-life at 1 μM came to 1.09 h. The activation at 10 µM in series [2] was greater than 70%.
`CC(C)(C)c1cc(O)n2ncc(-c3ccccc3)c2n1` [J]: the activation at 10 µM in series [2] lay in the range of 31 to 69%.
With `Cc1nc2c(-c3ccncc3)c(C)nn2c(S)c1Cc1ccccc1` [MM], the “Cell Ratings [Example 4] (cell activity)” value in series [2] is reported as “−”.
Regarding `COc1ccccc1-c1c(C)nn2c(S)cc(C)nc12` [Compound D], the activation at 10 µM in series [2] is less than 30%.
In the case of `Cc1nc2c(-c3ccccc3)c(C)nn2c(S)c1Cc1ccccc1` [Compound A, 6-benzyl-2,5-dimethyl-3-phenylpyrazolo[1,5-a]pyrimidine-7-thiol], in series [1], the half-life at 1 μM was found to be 1.05 h.
Turning to `Cc1nn2c(S)c(Cc3ccccc3)cnc2c1-c1ccccc1` [Compound DD, 6-benzyl-2-methyl-3-phenyl-pyrazolo[1,5-a]pyrimidin-7-thiol], in series [2], the activation at 10 µM was in the range of 31 to 69%.
Regarding `Cc1nn2c(O)cc(C(C)(C)C)nc2c1-c1ccc(Cl)cc1` [F], the activation at 10 µM in series [2] lay in the range of 31 to 69%.
Regarding `Cc1cc(S)n2ncc(-c3ccc(F)cc3)c2n1` [Compound L, 3-(4-fluorophenyl)-5-methylpyrazolo[1,5-a]pyrimidine-7-thiol], in series [1], the half-life at 1 μM came to 2.68 h. Moreover, the activation at 10 µM in series [2] is greater than 70%.
As for `Cc1nc2c(-c3ccccc3)cnn2c(O)c1Cc1ccccc1` [Compound U, 6-benzyl-5-methyl-3-phenyl-pyrazolo[1,5-a]pyrimidin-7-ol], the activation at 10 µM in series [2] lay within 31 to 69%.
Take `Cc1cc2nc(C)c(Cc3ccc(Cl)cc3)c(O)n2n1` [Compound P, 6-[(4-chlorophenyl)methyl]-2,5-dimethyl-pyrazolo[1,5-a]pyrimidin-7-ol]: the activation at 10 µM in series [2] was less than 30%.
Take `Cc1cc(S)n2ncc(-c3cccc(N(C)C)c3)c2n1` [UU]: the half-life at 1 μM in series [1] stood at 0.55 h.
For the compound `Cc1nn2c(S)c3c(nc2c1-c1ccccc1)CN(C)CC3` [Compound C3], the half-life at 1 μM in series [1] came to 2.57 h.
As to `Cc1nc2c(-c3ccccc3)cnn2c(S)c1Cc1ccccc1` [Compound CC, 6-benzyl-5-methyl-3-phenyl-pyrazolo[1,5-a]pyrimidin-7-thiol], in series [1], the half-life at 1 μM was found to be 0.382 h. The activation at 10 µM in series [2] is greater than 70%.
Regarding `COc1ccc(-c2cnn3c(S)cc(C)nc23)cc1` [SS], in series [1], the half-life at 1 μM was 0.74 h.
As for `Cc1nc2c(-c3ccccn3)c(C)nn2c(O)c1Cc1ccccc1` [FF], the activation at 10 µM in series [2] was less than 30%.
On the same count and under the same terms, for `CCc1nn2c(S)cc(C)nc2c1-c1ccc(F)cc1` [Compound I] the value was 31 to 69%; for `Cc1cc(S)n2ncc(-c3ccccc3)c2n1` [Compound C], 31 to 69%.
Consider `Cc1nc2c(-c3ccccc3)c(C)nn2c(S)c1Cc1ccccn1` [Compound BB, 2,5-dimethyl-3-phenyl-6-(2-pyridylmethyl)pyrazolo[1,5-a]pyrimidine-7-thiol], for which the “Cell Ratings [Example 4] (cell activity)” value in series [2] was “−”.
As for `Cc1nn2c(S)c3c(nc2c1-c1ccccc1)CCCC3` [Compound K], in series [2], the activation at 10 µM fell in the range of 31 to 69%.
As to `Cc1nc2c(-c3ccccc3)c(C)nn2c(O)c1Cc1ccccc1` [T], the activation at 10 µM in series [2] was less than 30%.
The same measure, in the same setting: the value for `Cc1cc2nc(C)c(Cc3ccccc3)c(S)n2n1` [S] was less than 30%; that for `Sc1c(Cc2ccccc2)cnc2c(-c3ccccc3)cnn12` [Compound Z, 6-benzyl-3-phenyl-pyrazolo[1,5-a]pyrimidin-7-thiol] was 31 to 69%; that for `Cc1cc2nc(C)c(Cc3ccc(Cl)cc3)c(S)n2n1` [Compound R, 6-[(4-chlorophenyl)methyl]-2,5-dimethyl-pyrazolo[1,5-a]pyrimidine-7-thiol] was less than 30%.
The same measure, in the same setting: for `Cc1nc2c(C(F)(F)F)c(C)nn2c(S)c1Cc1ccccc1` [LL] the value was 31 to 69%.
Take `Cc1ccc(-c2cnn3c(S)cc(C)nc23)cc1` [TT]: the half-life at 1 μM in series [1] turned out to be 0.197 h.
In the case of `Cc1cc(C)c2c(n1)nn1c(S)cc(C)nc21` [Compound E], the half-life at 1 μM in series [1] came to 2.88 h. Moreover, the activation at 10 µM in series [2] was greater than 70%.
